According to US8304428B2, “Compounds and methods for inhibiting the interaction of BCL proteins with binding partners” (Infinity Discovery, Inc., priority 2005, dated 2012):

Biological target: Bcl-2 (Homo sapiens, UniProt P10415)
Assay: Bcl-2 binding affinity analysis (fluorescence polarization binding assay)
Text: Bcl-2 and Bcl-xL binding can be determined using a variety of known methods. One such assay is a sensitive and quantitative in vitro binding assay using fluorescence polarization (FP) described by Wang, J.-L.; Zhang, Z-J.; Choksi, S.; Sjam. S.; Lu, Z.; Croce, C. M.; Alnemri, E. S.; Komgold, R.; Huang, Z. Cell permeable Bcl-2 binding peptides: a chemical approach to apoptosis induction in tumor cells. Cancer Res. 2000, 60, 1498-1502).
Bcl-2 binding affinity analysis data is presented below for various compounds of the invention.

Bcl-2, sequence (P10415 whole entry): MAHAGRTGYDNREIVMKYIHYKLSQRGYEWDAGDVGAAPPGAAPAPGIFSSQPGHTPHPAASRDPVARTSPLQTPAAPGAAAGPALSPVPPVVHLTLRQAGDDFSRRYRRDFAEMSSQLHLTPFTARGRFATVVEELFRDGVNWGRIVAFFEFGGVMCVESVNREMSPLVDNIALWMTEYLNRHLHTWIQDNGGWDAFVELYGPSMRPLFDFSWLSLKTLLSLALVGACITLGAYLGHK

| Ki | Compound |
| --- | --- |
| < 100 nM | COc1c(CN2CSC[C@H]2C(=O)N[C@H]2C[C@H]3C[C@@H]([C@@H]2C)C3(C)C)cccc1-c1cc(C(=O)N[C@@H](Cc2ccccc2)CN(C)C)cc(N(C)C)c1 [Compound 33] |
| > 50000 nM | COc1c(CN2CCC[C@H]2C(=O)N[C@H]2C[C@H]3C[C@@H]([C@@H]2C)C3(C)C)cccc1-c1cc(C(=O)N[C@@H](Cc2ccccc2)CN(C)C)cc([N+](=O)[O-])c1 [Compound 13] |
| < 100 nM | COc1c(CN2C[C@H](N)C[C@H]2C(=O)N[C@H]2C[C@H]3C[C@@H]([C@@H]2C)C3(C)C)cccc1-c1cc(C(=O)N[C@@H](Cc2ccccc2)CN(C)C)cc(N(C)C)c1 [Compound 35] |
| < 100 nM | CCN1CCC[C@@H]1CNC(=O)c1cc(-c2cccc(CN3C[C@H](O)[C@@H]([C@H](C)O)[C@H]3C(=O)NC3C[C@H]4C[C@@H]([C@@H]3C)C4(C)C)c2OC)cc(N(C)C)c1 (stereo partly drawn) [Compound 23] |

More lines, now with the values behind:

| Compound | Ki |
| --- | --- |
| COc1c(CN2CCC[C@@H]2C(=O)N[C@H]2C[C@H]3C[C@@H]([C@@H]2C)C3(C)C)cccc1-c1cc(C(=O)N[C@@H](Cc2ccccc2)CN(C)C)cc([N+](=O)[O-])c1 [Compound 18] | 300 to 50000 nM |
| COc1c(CN2CCCC[C@H]2C(=O)N[C@H]2C[C@H]3C[C@@H]([C@@H]2C)C3(C)C)cccc1-c1cc(C(=O)N[C@@H](Cc2ccccc2)CN(C)C)cc(N(C)C)c1 [Compound 37] | > 50000 nM |
| COc1c(CN2CCOC[C@H]2C(=O)N[C@H]2C[C@H]3C[C@@H]([C@@H]2C)C3(C)C)cccc1-c1cc(C(=O)N[C@@H](Cc2ccccc2)CN(C)C)cc(N(C)C)c1 [Compound 38] | 300 to 50000 nM |
| C[C@H](O)[C@H]1[C@@H](C(=O)NC2C[C@H]3C[C@@H]([C@@H]2C)C3(C)C)N(Cc2cccc(-c3ccc(C(=O)N(C)C)cc3)c2)C[C@@H]1O (stereo partly drawn) [Compound 24] | > 50000 nM |
| COc1c(CN2CSC(C)(C)[C@H]2C(=O)N[C@H]2C[C@H]3C[C@@H]([C@@H]2C)C3(C)C)cccc1-c1cc(C(=O)N[C@@H](Cc2ccccc2)CN(C)C)cc(N(C)C)c1 [Compound 34] | < 100 nM |
| COc1c(CN2C[C@H](O)[C@@H]([C@H](C)O)[C@H]2C(=O)NC2C[C@H]3C[C@@H]([C@@H]2C)C3(C)C)cccc1-c1cc(C(=O)NCCc2ccccc2)cc(N(C)C)c1 (stereo partly drawn) [Compound 1] | < 100 nM |
| COc1c(CN2C[C@@H](N)C[C@H]2C(=O)N[C@H]2C[C@H]3C[C@@H]([C@@H]2C)C3(C)C)cccc1-c1cc(C(=O)N[C@@H](Cc2ccccc2)CN(C)C)cc(N(C)C)c1 [Compound 36] | < 100 nM |
| COc1c(CN2CC[C@H](O)[C@H]2C(=O)N[C@H]2C[C@H]3C[C@@H]([C@@H]2C)C3(C)C)cccc1-c1cc(C(=O)N[C@@H](Cc2ccccc2)CN(C)C)cc(N(C)C)c1 [Compound 26] | < 100 nM |
